Measurements as given in patent publication US11242337B2, “Compounds useful for treating gastrointestinal tract disorders” (Ardelyx, Inc., priority 2017, dated 2022).

What was measured:
[1] = test system: absorption of sodium from the intestinal lumen; test: Inhibition of intestinal sodium absorption in rats; type: in vivo, Sprague Dawley rats; conditions: 13-hours post-dose; for response vs control in vivo at 0.03 mg/kg: oral gavage 0.03 mg/kg; for response vs control in vivo at 0.1 mg/kg: oral gavage 0.1 mg/kg; for FFS (1-5): rats, group median fecal form score, 1 normal pellet to 5 liquid fecal streams; for response vs control in vivo at 0.3 mg/kg: oral gavage 0.3 mg/kg
Experimental: Urinary sodium excretion and fecal form were measured to assess the ability of selected example compounds to inhibit the absorption of sodium from the intestinal lumen. Eight-week old, male, Sprague Dawley rats were purchased from Envigo (Livermore, Calif.), were housed 2 per cage and acclimated for at least 48 hours before study initiation. Animals were fed. Harlan Teklad Global TD.160470 rodent chow (Madison, Wis.), standard laboratory rodent chow Harlan Teklad Global 2018 with the addition of 0.4% inorganic phosphorous. Animals had ad libitum access to food and water for the duration of the study and were maintained in a temperature and humidity controlled room on a standard light/dark cycle of 6 AM to 6 PM. On the day of study initiation, rats (n=5/group) were dosed by oral gavage with test compound or vehicle (3 mM HCl, 0.01% Tween80) at a dose volume of […]. Immediately after dose administration animals were placed in individual metabolic cages. At 13-hours post-dose, urine samples were collected and fecal form was assessed. In addition, the weight of food consumed over the 13-hour period was measured and recorded. Fecal forms were scored according to a common scale associated with increasing fecal water to the wettest observation in the cage's collection funnel (1, normal pellet; 2, pellet adhering to sides of collection funnel due to moisture; 3, loss of normal pellet shape; 4, complete loss of shape with a blotting pattern; 5, liquid fecal streams evident). Fecal form score (FFS) was calculated for each group as the median of each individual rat's FFS within the group and reported in Table 7. Fecal samples were dried using a lyophilizer for at least 3 days, following which dry weight was recorded and fecal fluid content was calculated based on the difference between the wet and dry stool weights. Fecal fluid content was calculated as a change from the vehicle group mean. For urine samples, the volumes were determined gravimetrically. Urine samples were analyzed on an ion chromatography system (Thermo Fisher ICS-3000 or ICS-5000+) coupled with conductivity detectors. Chromatographic separation of cations was performed using an IonPac CS12A (Thermo Fisher) 2×250 mm analytical column with an isocratic elution using 25 mM methanesulfonic acid. Concentrations were interpolated from a standard curve (prepared in 10 mM HCl) for sodium based on retention time and peak area. Thirteen-s-hour urinary sodium excretion (mg/13-hours) was calculated by multiplying urinary sodium concentration by 13-hour urine volume. The urinary sodium excretion of compound treatment was normalized to dietary sodium intake and expressed as a percentage of the vehicle mean.

gastrointestinal transit = test: Restoration of gastrointestinal motility in opioid induced constipation (loperamide); type: in vivo, mice; conditions: oral gavage 15 mg/kg, loperamide s.c., Evans Blue small intestinal transit 30 minutes
Experimental: Approximately eight-week old, female, CD1 […] are purchased from Envigo (Livermore, Calif.), are housed 4 per cage and acclimated for at least 48 hours before study initiation. Animals are fed standard laboratory rodent chow Harlan Teklad Global 2018 (Madison, Wis.). Animals have ad libitum access to food and water for the duration of the acclimation period and are maintained in a temperature and humidity controlled room on a standard light/dark cycle of 6 AM to 6 PM. Following an overnight fast, with free access to water, animals are dosed by oral gavage with varying doses of test compound or vehicle (3 mM HCl, 0.01% Tween80), at a dose volume of 5 mL/kg. […] For an individual animal, the length travels by the Evans Blue dye front is divided by the length of the whole small intestine, measured from the pylorus to the cecum, and multiplied by 100, to provide the distance of the small intestine travelled by the dye as a percentage.

[2] = Rattus norvegicus, Sprague Dawley rats, read-out: Urinary Na (% of Vehicle, out/in)

Compound	response vs control in vivo at 0.003 mg/kg ([1]; Rattus norvegicus, Sprague Dawley rats, oral gavage 0.003 mg/kg, read-out: Urinary Na (% of Vehicle, out/in)) [%]	response vs control in vivo at 0.01 mg/kg ([1]; Rattus norvegicus, Sprague Dawley rats, oral gavage 0.01 mg/kg, read-out: Urinary Na (% of Vehicle, out/in)) [%]	response vs control in vivo at 0.03 mg/kg [1, 2] [%]	response vs control in vivo at 0.1 mg/kg [1, 2] [%]	FFS (1-5) ([1]; 0.003 mg/kg)	FFS (1-5) ([1]; 0.01 mg/kg)	FFS (1-5) ([1]; 0.03 mg/kg)	FFS (1-5) ([1]; 0.1 mg/kg)	% Restoration of Transit (gastrointestinal transit)	response vs control in vivo at 0.3 mg/kg [1, 2] [%]	FFS (1-5) ([1]; 0.3 mg/kg)
N#Cc1cc(Cl)cc2c1C[C@H](N1CCNCC1)[C@H]2Oc1ccc(S(=O)(=O)NC2CCN(C(=O)CCCNC(=O)NCCCCNC(=O)NCCCC(=O)N3CCC(NS(=O)(=O)c4ccc(O[C@H]5c6cc(Cl)cc(C#N)c6C[C@@H]5N5CCNCC5)cc4)CC3)CC2)cc1 [Example 115]	> 70	> 70	> 70	< 40	1	2	2	2	B (20-40%)		
N#Cc1cc(Cl)cc2c1C[C@H](N1CCNCC1)[C@H]2Oc1ccc(S(=O)(=O)NC2CCN(CCOCCNC(=O)NCCCCNC(=O)NCCOCCN3CCC(NS(=O)(=O)c4ccc(O[C@H]5c6cc(Cl)cc(C#N)c6C[C@@H]5N5CCNCC5)cc4)CC3)CC2)cc1 [Example 123, 4-([(1S,2S)-6-Chloro-4-cyano-2-(piperazin-1-yl)-2,3-dihydro-1H-inden-1-yl]oxy)-N-[1-(20-[4-([4-([(1S,2S)-6-chloro-4-cyano-2-(piperazin-1-yl)-2,3-dihydro-1H-inden-1-yl]oxy)phenyl]sulfonamide]piperidin-1-yl)-7,14-dioxo-3,18-dioxa-6,8,13,15-tetraazaicosyl]piperidin-4-yl)benzenesulfonamide]			> 70	40 to 70			3	3	A (<20%)	< 40	3
C[C@@H]1CN([C@H]2Cc3c(C#N)cc(Cl)cc3[C@@H]2Oc2ccc(S(=O)(=O)N[C@H]3CCN(CCOCCNC(=O)NCCCCNC(=O)NCCOCCN4CC[C@H](NS(=O)(=O)c5ccc(O[C@H]6c7cc(Cl)cc(C#N)c7C[C@@H]6N6CCN[C@H](C)C6)cc5)C4)C3)cc2)CCN1 [Example 132, 4-([(1S,2S)-6-Chloro-4-cyano-2-[(R)-3-methylpiperazin-1-yl]-2,3-dihydro-1H-inden-1-yl]oxy)-N—[(S)-1-(20-[(S)-3-([4-([(1S,2S)-6-chloro-4-cyano-2-[(R)-3-methylpiperazin-1-yl]-2,3-dihydro-1H-inden-1-yl]oxy)phenyl]sulfonamido)pyrrolidin-1-yl]-7,14-diaxo-3,18-dioxa-5,8,13,15-tetraazaicosyl)pyrrolidin-3-yl]benzenesulfonamide; bis(trifluoroacetic acid)]			> 70	40 to 70			3	3	C (>40%)	< 40	3
